Data set [1] in a line: Metabolic stability in human NK cells assessed as formation of 4-hydroxydodecanoic acid at 375 uM after 3 hrs by RP-HPLC analysis. The format is ADME, cell-based.
Data set [2] is filed under the species Homo sapiens. The experiment in a line: Immunomodulatory activity in human PMNC assessed as induction of CD69 expression at 375 uM within 10 mins by FACS analysis. The format is functional. In general terms: A flow cytometer gives signals particle by particle.
The subject of data set [3] is PBMC. The experiment in a line: Cellular uptake in human PBMC pellet solution after 1 hr by GC analysis. The format is ADME, cell-based.
The subject of data set [4] is PBMC. The experiment in a line: Cellular uptake in human PBMC nucleus assessed per mg of protein after 20 mins by GC analysis. The format is ADME, cell-based.
The test system of data set [5] is NK. The experiment in a line: Immunomodulatory activity in human NK cells assessed as induction of CD69 gene expression at 375 uM after 4 hrs by RT-PCR analysis. It is filed as functional, cell-based.
For data set [6], the system named is NK. The experiment in a line: Immunomodulatory activity in human NK cells assessed as induction of GZMB gene expression at 375 uM after 4 hrs by RT-PCR analysis. It is filed as functional, cell-based.
Data set [7] relates to PBMC. The experiment in a line: Cellular uptake in human PBMC nucleus after 20 mins by GC analysis. It is filed as ADME, cell-based.
Data set [8] concerns PBMC. The experiment in a line: Cellular uptake in human PBMC after 20 mins by GC analysis. The format is ADME, cell-based.
Data set [9] relates to PBMC. The experiment in a line: Cellular uptake in human PBMC residual solution after 2 hrs by GC analysis. The format is ADME, cell-based.
Data set [10] deals with PBMC. The experiment in a line: Cellular uptake in human PBMC nucleus residual solution after 2 hrs by GC analysis. The format is ADME, cell-based.
Data set [11] can be described thus: Cellular uptake in human NK cells at 500 uM after 20 mins by GC analysis. It is filed as ADME, cell-based.
The test system of data set [12] is PBMC. The experiment in a line: Cellular uptake in human PBMC pellet solution after 10 mins by GC analysis. It is filed as ADME, cell-based.
The test system of data set [13] is PBMC. The experiment in a line: Cellular uptake in human PBMC after 2 hrs by GC analysis. The format is ADME, cell-based.
Data set [14] in a line: Immunomodulatory activity in human PMNC assessed as induction of CD69 expression at 375 uM after 24 hrs by FACS analysis. The format is functional.
The test system of data set [15] is PBMC. The experiment in a line: Cellular uptake in human PBMC after 10 mins by GC analysis. It is filed as ADME, cell-based.
The subject of data set [16] is PBMC. The experiment in a line: Cellular uptake in human PBMC nucleus after 2 hrs by GC analysis. It is filed as ADME, cell-based.
The subject of data set [17] is NK. The experiment in a line: Immunomodulatory activity in human NK cells assessed as induction of IL2 gene expression at 375 uM after 4 hrs by RT-PCR analysis. The format is functional, cell-based.
In data set [18] the test system is PBMC. The experiment in a line: Cellular uptake in human PBMC residual solution after 3 hrs by GC analysis. It is filed as ADME, cell-based.
Data set [19] has as its system PBMC. The experiment in a line: Cellular uptake in human PBMC nucleus assessed per mg of protein after 2 hrs by GC analysis. The format is ADME, cell-based.
Data set [20] concerns NK. The experiment in a line: Immunomodulatory activity in human NK cells assessed as induction of IFNG gene expression at 375 uM after 4 hrs by RT-PCR analysis. It is filed as functional, cell-based.
Data set [21] can be described thus: Cytotoxicity human PMNC up to 375 uM after 48 hrs by WST assay.
Data set [22] has as its system PBMC. The experiment in a line: Cellular uptake in human PBMC nucleus after 1 hr by GC analysis. The format is ADME, cell-based.
Data set [23] in a line: Metabolic stability in human NK cells assessed as conversion to 4-hydroxydodecanoic acid at 375 uM after 45 mins by RP-HPLC analysis. The format is ADME, cell-based. Conditions: 0.75 h.
In data set [24] the test system is PBMC. The experiment in a line: Cellular uptake in human PBMC pellet solution after 2 hrs by GC analysis. It is filed as ADME, cell-based.
The subject of data set [25] is PBMC. The experiment in a line: Cellular uptake in human PBMC after 3 hrs by GC analysis. It is filed as ADME, cell-based.
Data set [26] concerns PBMC. The experiment in a line: Cellular uptake in human PBMC pellet solution after 3 hrs by GC analysis. The format is ADME, cell-based.
The subject of data set [27] is PBMC. The experiment in a line: Cellular uptake in human PBMC residual solution after 30 mins by GC analysis. The conditions noted are these: 0.5 h. It is filed as ADME, cell-based.
Data set [28] has as its system PBMC. The experiment in a line: Cellular uptake in human PBMC after 1 hr by GC analysis. The format is ADME, cell-based.
Data set [29] concerns PBMC. The experiment in a line: Cellular uptake in human PBMC nucleus assessed per mg of protein after 10 mins by GC analysis. The format is ADME, cell-based.
Data set [30] can be described thus: Immunomodulatory activity in human PMNC assessed as induction of CD69 expression at 200 uM after 24 hrs by FACS analysis. It is filed as functional.
Data set [31] relates to NK. The experiment in a line: Immunomodulatory activity in human NK cells assessed as induction of TNF gene expression at 375 uM after 4 hrs by RT-PCR analysis. It is filed as functional, cell-based.
Data set [32] deals with PBMC. The experiment in a line: Cellular uptake in human PBMC residual solution after 10 mins by GC analysis. The format is ADME, cell-based.
Data set [33] in a line: Immunomodulatory activity in human PMNC assessed as induction of CD69 expression at 20 ng/ml after 24 hrs by FACS analysis. The format is functional.
A further data set has as its system HepG2. The experiment in a line: Immunomodulatory activity in human HepG2 cells assessed as induction of innate immunity-mediated cytotoxicity at 375 uM after 24 hrs by fluorescence microscopy. It is filed as functional, cell-based.
The nature of data set [34]: Immunomodulatory activity in human PMNC assessed as induction of FasL expression at 375 uM after 24 hrs by FITC-conjugated flow cytometry relative to control. It is filed as functional.
A short description of data set [35]: Immunomodulatory activity in human PMNC assessed as induction of GraB expression at 375 uM after 24 hrs by FITC-conjugated flow cytometry relative to control. It is filed as functional.
Data set [36] concerns NK. The experiment in a line: Immunomodulatory activity in human NK cells assessed as induction of FASLG gene expression at 375 uM after 4 hrs by RT-PCR analysis. It is filed as functional, cell-based.
Data set [37] has as its system PBMC. The experiment in a line: Cellular uptake in human PBMC residual solution after 20 mins by GC analysis. The format is ADME, cell-based.
For data set [38], the system named is PBMC. The experiment in a line: Cellular uptake in human PBMC nucleus residual solution after 30 mins by GC analysis. It is filed as ADME, cell-based. Conditions: 0.5 h.
In data set [39] the test system is PBMC. The experiment in a line: Cellular uptake in human PBMC nucleus after 30 mins by GC analysis. It is filed as ADME, cell-based. The conditions noted are these: 0.5 h.
The species entered for data set [40] is Homo sapiens. The experiment in a line: Immunomodulatory activity in human PMNC assessed as induction of CD69 expression after 24 hrs by FITC-conjugated flow cytometry. It is filed as functional.
For data set [41], the system named is PBMC. The experiment in a line: Cellular uptake in human PBMC nucleus residual solution after 10 mins by GC analysis. The format is ADME, cell-based.
Data set [42] deals with PBMC. The experiment in a line: Cellular uptake in human PBMC nucleus assessed per mg of protein after 30 mins by GC analysis. It is filed as ADME, cell-based. Conditions: 0.5 h.
Data set [43] can be described thus: Immunomodulatory activity in human PMNC assessed as induction of CD69 expression at 100 uM after 24 hrs by FACS analysis. It is filed as functional.
Data set [44] has as its system PBMC. The experiment in a line: Cellular uptake in human PBMC pellet solution after 30 mins by GC analysis. The format is ADME, cell-based. Conditions: 0.5 h.
Data set [45] deals with PBMC. The experiment in a line: Cellular uptake in human PBMC pellet solution after 20 mins by GC analysis. It is filed as ADME, cell-based.
Data set [46] deals with PBMC. The experiment in a line: Cellular uptake in human PBMC nucleus after 10 mins by GC analysis. The format is ADME, cell-based.
In data set [47] the test system is PBMC. The experiment in a line: Cellular uptake in human PBMC residual solution after 1 hr by GC analysis. It is filed as ADME, cell-based.
In data set [48] the test system is PBMC. The experiment in a line: Cellular uptake in human PBMC nucleus assessed per mg of protein after 1 hr by GC analysis. It is filed as ADME, cell-based.
The test system of data set [49] is PBMC. The experiment in a line: Cellular uptake in human PBMC nucleus residual solution after 1 hr by GC analysis. The format is ADME, cell-based.
Data set [50] deals with PBMC. The experiment in a line: Cellular uptake in human PBMC nucleus residual solution after 20 mins by GC analysis. It is filed as ADME, cell-based.
The test system of data set [51] is PBMC. The experiment in a line: Cellular uptake in human PBMC after 30 mins by GC analysis. It is filed as ADME, cell-based. The conditions noted are these: 0.5 h.

Each structure is given as a SMILES string. Activity calls are given as the source filed them. The calls are words filed in the database; no cut-off is given here.

Consider `CCCCCCCCC(O)CCC(=O)O` (centres undefined), for which the Stability result in [1] is “Unstable”. Also, the result in the data set listed under Homo sapiens [2] was Active.

Regarding `CCCCCCCC[C@H]1CCC(=O)O1`, the Drug uptake in the data set with PBMC [3] came out at 0.007 µg; with PBMC [4], 0.013 ng; in the data set on PBMC [7] it was 0.774 mg/mL; with PBMC [8], 0.022 µg; with PBMC [9] it was 0.009 µg; in the data set on PBMC [10], 0 ng. In addition, the Drug uptake in data set [11] came out at 18.62 ng; in the data set on PBMC [12], 0 µg; with PBMC [13], 0.009 µg; with PBMC [15], 0.02 µg; with PBMC [16], 0.658 mg/mL; with PBMC [18], 0 µg. In addition, the Drug uptake stood at 0 ng in the data set on PBMC [19]; 0.9 mg/mL with PBMC [22]; 0 µg with PBMC [24]; 0 µg in the data set with PBMC [25]; 0 µg in the data set with PBMC [26]; 0.019 µg in the data set on PBMC [27]. Besides, the Drug uptake with PBMC [28] is 0.017 µg; in the data set with PBMC [29] it was 0.011 ng; in the data set with PBMC [32], 0.02 µg; in the data set on PBMC [37], 0.015 µg; with PBMC [38], 9.95 ng; in the data set with PBMC [39], 0.618 mg/mL. The Drug uptake in the data set on PBMC [41] turned out to be 8.44 ng; with PBMC [42], 0.016 ng; in the data set on PBMC [44], 0.008 µg; with PBMC [45], 0.007 µg; in the data set with PBMC [46], 0.791 mg/mL; in the data set on PBMC [47], 0.01 µg. Also, the Drug uptake with PBMC [48] is 0.001 ng; in the data set on PBMC [49], 8.4 ng; with PBMC [50], 9.95 ng; with PBMC [51], 0.027 µg. Moreover, the outcome in the data set with NK [5], in the data set on NK [6], with NK [17], with NK [20], in the data set with NK [31] and in the data set on HepG2 was Active. For the same molecule, the outcome with NK [36] was Active. Further, the Activity was 19.37% in data set [14]; “Non-toxic” in data set [21]; 29% in [23]; 13.58% in data set [30]; 33.65% in [33]; “Dose-dependent effect” in the data set listed under Homo sapiens [40]. Also, the Activity in [43] turned out to be 10.51%. Besides, the “fold change (FC)” value in [34] is reported as 2.5; in data set [35], 1.5.

`CCCCCCCC[C@@H](O)CCC(=O)O`: in the data set filed under Homo sapiens [2], the outcome was Active.

For the molecule `CCCCCCCC[C@H](O)CCC(=O)O`, the result in the data set filed under Homo sapiens [2] was Active.

Values taken from ChEMBL document CHEMBL1268871, “Structure and functions of gamma-dodecalactone isolated from Antrodia camphorata for NK cell activation” (Bioorg Med Chem, 2010).
